Data taken from PMC6508677, “Identification of druggable small molecule antagonists of the Plasmodium falciparum hexose transporter PfHT and assessment of ligand access to the glucose permeation pathway via FLAG-mediated protein engineering” (PLoS ONE, 2019).
Where “and” joins values, the source holds several entries; their conditions need not be identical. Equal values may be shown once.

How the values were obtained:
hGLUT2 = target: T1, hGLUT2 (Homo sapiens, UniProt P11168); experiment: 2-DG uptake by HEK293 cells overexpressing hGLUT2; format: cell-based; conditions: for remaining activity at 0.001 µM: 0.001 µM compound; for remaining activity at 1.25 µM: 1.25 µM compound; for remaining activity at 5 µM / inhibition at 5 µM: 5 μM compound; for remaining activity at 80 µM: 80 µM compound; for remaining activity at 160 µM: 160 µM compound; for IC50: IC50 for inhibition of 2-DG uptake
T1 construct: expressed in transfected cells; host or cells: HEK293 (HEK293-FLIP, native hGLUT1 knocked down by shRNA)
T1 sequence (P11168 1-524): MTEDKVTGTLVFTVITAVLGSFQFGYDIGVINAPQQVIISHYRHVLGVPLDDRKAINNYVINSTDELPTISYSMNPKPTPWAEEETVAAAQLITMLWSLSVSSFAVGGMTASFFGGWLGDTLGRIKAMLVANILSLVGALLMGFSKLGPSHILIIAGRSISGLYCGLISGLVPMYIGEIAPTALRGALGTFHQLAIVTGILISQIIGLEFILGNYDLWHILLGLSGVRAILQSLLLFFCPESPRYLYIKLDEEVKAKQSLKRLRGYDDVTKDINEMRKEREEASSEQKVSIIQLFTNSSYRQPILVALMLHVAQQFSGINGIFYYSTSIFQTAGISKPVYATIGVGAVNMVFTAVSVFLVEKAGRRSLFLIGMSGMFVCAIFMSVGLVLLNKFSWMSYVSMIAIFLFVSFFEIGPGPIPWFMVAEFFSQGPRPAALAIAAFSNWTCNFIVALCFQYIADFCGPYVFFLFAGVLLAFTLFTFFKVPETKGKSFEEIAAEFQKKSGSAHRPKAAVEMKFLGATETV
Source text: (§1) Generation of HEK293 cells overexpressing PfHT and human GLUTs 1–4 were described elsewhere. Briefly, HEK293 cells were transfected with pcDNA3.1 FLII12Pglu-7006 (Addgene), containing the fluorescence resonance energy transfer (FRET) glucose sensor (HEK293-FLIP) and PfHT, human GLUT1 (hGLUT1), hGLUT2, hGLUT3, hGLUT4, hGLUT5 or hGLUT8 using Optifect (Life Technologies) according to manufacturer’s specifications. To increase retention of GLUT8 at the plasma membrane, the dileucine sorting signal E^7E^8XXXLL was modified to R^7R^8XXXLL as described in [17]. Stable transfectants were selected for G418 and hygromycin resistance to select for FRET sensor and hexose transporter, respectively. HEK293-FLIP cells were also used to generate cells stably transfected with FLAG-tagged PfHT (FTPfHT). FLAG tag ([…]) followed by a triple glycine linker and a tobacco etch virus (TEV) protease site (ENLYFQS) followed by a triple glycine linker was added to the N-terminus of PfHT via PCR [18] using Phusion Hot Start II High-Fidelity DNA Polymerase (Fisher Scientific). Single clones were selected by comparing their abilities to transport glucose as assayed via FRET and radiolabeled hexose uptake. In all cell lines, except for HEK293 cells overexpressing hGLUT1 and hGLUT5, native hGLUT1 was knocked down using shRNA as described elsewhere. Transcript levels of the individual GLUTs expressed in each cell line are as described in [13, 15] and in S1 Fig.
(§2) Glucose uptake by P. falciparum was performed essentially as described. P. falciparum strain 3D7 was cultured in 100 mm tissue culture dishes (Techno Plastic Products) in a 2% suspension of human erythrocytes and RPMI 1640 medium until reaching > 7.5% parasitemia. Cells were pelleted via centrifugation and resuspended in RPMI 1640 medium. To determine the uptake of radiolabeled glucose into the parasite, parasites were isolated from infected erythrocytes by permeablization with saponin (0.05 w/v), followed by centrifugation, aspiration of supernatant and washing of the pellet 3X with saline solution (135 mM NaCl, 2 mM KCl, 25 mM HEPES, 0.2 mM glucose and 1 mM MgCl2; pH 7.1) to remove cellular debris. WU-1 or DMSO vehicle were added to 100 μl parasites (resuspended in saline) 5 min prior to the addition of 100 μl [^14C]2-DOG (0.2- μCi/ml final concentration). 2-DG uptake was stopped after 2 min by layering the entire reaction over 300 μl of an oil mixture (5:4 mix of dibutyl phthalate / dinonyl phthalate) in Eppendorf tubes and centrifuged at 15,850 × g for 2 mins. The ratio of the estimated intracellular concentration of radiolabel relative to the extracellular concentration were calculated as described. Uptake of radiolabeled hexose into HEK293 cells was measured in glucose-free HBSS as described previously. Briefly, cells were plated at 400,000 cells/well overnight at 37°C in 24-well plates pre-treated with PEI. After 30-min incubation at 37°C in glucose-free HBSS in the presence of vehicle or increasing concentrations of compound, 2-DG uptake was measured in glucose-free HBSS for 4 min at 37°C. Cultures were washed in ice-cold 1X PBS and lysed in 0.1% Triton X-100 in 1X PBS. Radiolabeled hexose uptake was determined by liquid scintillation counting (Ultima Gold, Thermo Fisher) and normalized to total protein per well. Uptake data are plotted as percent uptake relative to vehicle-treated cells. Kinetic analyses were performed using the indicated concentrations of substrate and WU-1, with quenching of uptake after 1 min incubation. Incubation times had been previously determined as being in the linear range of time-dependent radiolabeled hexose uptake (2 min for 2-DG uptake into freed parasites; 2 and 4 min for D-Frc and 2-DG uptake HEK cell lines, respectively). Data were fit by least squares nonlinear regression analysis using GraphPad Prism 6.0 software.

hGLUT3 = target: T2, hGLUT3 (Homo sapiens, UniProt P11169); experiment: 2-DG uptake by HEK293 cells overexpressing hGLUT3; format: cell-based; conditions: for remaining activity at 0.001 µM: 0.001 µM compound; for remaining activity at 5 µM / inhibition at 5 µM: 5 μM compound; for remaining activity at 40 µM: 40 µM compound; for remaining activity at 80 µM: 80 µM compound; for remaining activity at 160 µM: 160 µM compound; for remaining activity at 225 µM: 225 µM compound; for IC50: IC50 for inhibition of 2-DG uptake
T2 construct: expressed in transfected cells; host or cells: HEK293 (HEK293-FLIP, native hGLUT1 knocked down by shRNA)
T2 sequence (P11169 1-496): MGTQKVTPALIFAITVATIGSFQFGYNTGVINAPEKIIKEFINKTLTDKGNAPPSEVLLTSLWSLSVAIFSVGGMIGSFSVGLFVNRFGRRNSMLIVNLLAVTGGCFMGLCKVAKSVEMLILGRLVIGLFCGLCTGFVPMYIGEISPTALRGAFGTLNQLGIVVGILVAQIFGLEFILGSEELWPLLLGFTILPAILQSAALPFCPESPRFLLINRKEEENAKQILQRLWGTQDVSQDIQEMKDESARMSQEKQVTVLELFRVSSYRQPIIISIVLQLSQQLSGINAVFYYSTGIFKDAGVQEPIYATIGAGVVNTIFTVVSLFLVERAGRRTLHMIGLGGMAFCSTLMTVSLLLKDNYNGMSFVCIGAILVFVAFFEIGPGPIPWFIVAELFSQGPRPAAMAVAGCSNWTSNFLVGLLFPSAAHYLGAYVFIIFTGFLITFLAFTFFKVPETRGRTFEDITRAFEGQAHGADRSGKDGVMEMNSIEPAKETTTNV
Source text: as §1, §2

[1] = HEK293, 4 min, GLUT2, read-out: 2-DG uptake (percent uptake relative to vehicle), AVE per experiment
[2] = HEK293, 4 min, GLUT2, 2.5 µM compound, read-out: 2-DG uptake (percent uptake relative to vehicle), AVE per experiment
[3] = HEK293, 4 min, GLUT2, read-out: % Inhibition of 2-DG uptake vs vehicle
[4] = GLUT2 cell line, mean/reported value
[5] = individual experiments, GLUT2, Expt 1-3
[6] = HEK293, 4 min, GLUT3, read-out: 2-DG uptake (percent uptake relative to vehicle), AVE per experiment
[7] = HEK293, 4 min, GLUT3, 2.5 µM compound, read-out: 2-DG uptake (percent uptake relative to vehicle), AVE per experiment
[8] = HEK293, 4 min, GLUT3, read-out: % Inhibition of 2-DG uptake vs vehicle
[9] = HEK293, 4 min, GLUT3, 10 µM compound, read-out: 2-DG uptake (percent uptake relative to vehicle), AVE per experiment
[10] = GLUT3 cell line, mean/reported value
[11] = individual experiments, GLUT3, Expt 1-3

SMILES | remaining activity at 0.001 µM (hGLUT2; [1]) | remaining activity at 1.25 µM (hGLUT2; [1]) | remaining activity at 2.5 µM (hGLUT2; [2]) | remaining activity at 5 µM (hGLUT2; [1]) | inhibition at 5 µM (hGLUT2; [3]) | remaining activity at 80 µM (hGLUT2; [1]) | remaining activity at 160 µM (hGLUT2; [1]) | IC50 (hGLUT2; [4]) | IC50 (hGLUT2; [5]) | remaining activity at 0.001 µM (hGLUT3; [6]) | remaining activity at 2.5 µM (hGLUT3; [7]) | remaining activity at 5 µM (hGLUT3; [6]) | inhibition at 5 µM (hGLUT3; [8]) | remaining activity at 10 µM (hGLUT3; [9]) | remaining activity at 40 µM (hGLUT3; [6]) | remaining activity at 80 µM (hGLUT3; [6]) | remaining activity at 160 µM (hGLUT3; [6]) | remaining activity at 225 µM (hGLUT3; [6]) | IC50 (hGLUT3; [10]) | IC50 (hGLUT3; [11]) | other results
Cc1ccc(S(=O)(=O)CCNC(=O)c2c(-c3c(Cl)cccc3Cl)noc2C)cc1 [WU-1, 3-(2,6-dichlorophenyl)-5-methyl-N-[2-(4-methylbenzenesulfonyl)ethyl]-1,2-oxazole-4-carboxamide] | 100% | 108% | 110% | 83% | ~10% | 73.8% | 54.5% | > 50 µM | 52.4 µM | 100% | 103% | 99.5% | 0.48% | 103% | 82.5% | 76.4% | 80% | 75.3% | > 100 µM | > 225 µM | IC50 for inhibition of 2-DG uptake, individual experiments (hGLUT2; GLUT2, Expt 1-3): ambiguous; IC50 for inhibition of 2-DG uptake, individual experiments (hGLUT3; GLUT3, Expt 1-3): ambiguous; remaining activity at 1.25 µM (hGLUT3; HEK293, 4 min, GLUT3, 1.25 µM compound, read-out: 2-DG uptake (percent uptake relative to vehicle), AVE per experiment): 110%; remaining activity at 20 µM (hGLUT3; HEK293, 4 min, GLUT3, 20 µM compound, read-out: 2-DG uptake (percent uptake relative to vehicle), AVE per experiment): 102%
COc1c(Br)cc([N+](=O)[O-])c(OC)c1C(=O)NC(=O)Nc1c(C)cccc1Cl [WU-2, 3-(3-bromo-2,6-dimethoxy-5-nitrobenzoyl)-1-(2-chloro-6-methylphenyl)urea] | 100% | 102% | 83.6% | 74.5% | 10 to 12% | 35.2% | 42.1% | 15.9 ± 2.5 µM | 14.1 µM and 20.8 µM and 12.9 µM | 100% | 92.9% | 92.4% | 10 to 12% | 95.1% | 91.7% | 81.9% | 68.7% | 77.5% | > 50 µM | 103 µM and 61.6 µM and 11.4 µM | Maximum Inhibition (%) (hGLUT2; 2-DG uptake, GLUT2 cell line): 62.0%; remaining activity at 10 µM (hGLUT2; HEK293, 4 min, GLUT2, 10 µM compound, read-out: 2-DG uptake (percent uptake relative to vehicle), AVE per experiment): 62.8%; remaining activity at 20 µM (hGLUT2; HEK293, 4 min, GLUT2, 20 µM compound, read-out: 2-DG uptake (percent uptake relative to vehicle), AVE per experiment): 64%; remaining activity at 40 µM (hGLUT2; HEK293, 4 min, GLUT2, 40 µM compound, read-out: 2-DG uptake (percent uptake relative to vehicle), AVE per experiment): 39.5%; remaining activity at 225 µM (hGLUT2; HEK293, 4 min, GLUT2, 225 µM compound, read-out: 2-DG uptake (percent uptake relative to vehicle), AVE per experiment): 30.9%
COc1cc(/C=N/NC(=O)c2cc(-c3ccccc3)sc2N)cc(OC)c1OC [WU-3, 2-amino-5-phenyl-N'-[(E)-(3,4,5-trimethoxyphenyl)methylidene]thiophene-3-carbohydrazide] |  |  |  |  |  |  |  |  |  |  |  |  |  |  |  |  |  |  |  |  | inhibition at 10 µM (hGLUT3; HEK293, 4 min, GLUT3, 10 µM compound, read-out: % Inhibition of 2-DG uptake vs vehicle): ≥ 50%
COc1cc(/C=C2\COC/C(=C\c3cc(OC)c(OC)c(OC)c3)C2=O)cc(OC)c1OC [WU-5, (3E,5E)-3,5-bis[(3,4,5-trimethoxyphenyl)methylidene]oxan-4-one] |  |  |  |  |  |  |  |  |  |  |  |  |  |  |  |  |  |  |  |  | inhibition at 2.5 µM (hGLUT2; HEK293, 4 min, GLUT2, 2.5 µM compound, read-out: % Inhibition of 2-DG uptake vs vehicle): ~70%; inhibition at 2.5 µM (hGLUT3; HEK293, 4 min, GLUT3, 2.5 µM compound, read-out: % Inhibition of 2-DG uptake vs vehicle): ~20%
